We go through one compound from patent publication US20080038357A1, “Inhalation Powder Containing the CGRP antagonist BIBN4096 and Process for the Preparation Thereof” (priority 2002, published 2008).

Series [1] in a line: Bioavailability after administration by inhalation. Conditions: in vivo, inhaled or intranasal; administered by inhalation as spherically nanostructured microparticles; based on the fine fraction of the formulation (FPD, USP 24 Suppl. 2000).
A short description of series [2]: Stability of the amorphous state of the microparticles. Type of series: physicochemical. The note with it: normal conditions (T<50° C., relative humidity <75%).
The conditions of series [3]: conventional preparations; cited from earlier work.

Turning to `NCCCC[C@H](NC(=O)[C@@H](Cc1cc(Br)c(O)c(Br)c1)NC(=O)N1CCC(N2Cc3ccccc3NC2=O)CC1)C(=O)N1CCN(c2ccncc2)CC1` [BIBN4096, 1-[N^2-[3,5-dibromo-N-[[4-(3,4-dihydro-2(1H)-oxoquinazolin-3-yl)-1-piperidinyl]carbonyl]-D-tyrosyl]-L-lysyl]-4-(4-pyridinyl)-piperazine], the bioavailability (as a rule, dose-corrected exposure relative to a reference, in per cent) in series [1] is ~60%. In addition, the “stability of amorphous state” value in series [2] was “stable in their amorphous state”. Also, in series [3], the “bioavailability by oral route” value is on record as “only limited bioavailability by oral route”.
